Laboratory results reported in US20260034044A1, “A PRESERVATIVE COMPOSITION” (AnalytiCon Discovery - Zweigniederlassung der BRAIN Biotech …, priority 2022, published 2026).
Values after ≈ are worked out from the molar mass of the structure shown.

What was measured:
Assay type in all cases: cell-based
[1] = system: Porphyromonas gingivalis DSM 20709; experiment: Antimicrobial activity (MIC); conditions: DSM20709, potato dextrose broth pH 3.8, visual evaluation, read-out: Minimal Inhibitory Concentration (MIC)
[2] = system: Listeria monocytogenes DSM 20600; experiment: Antimicrobial activity (MIC); conditions: DSM20600, potato dextrose broth pH 3.8, visual evaluation, read-out: Minimal Inhibitory Concentration (MIC)
[3] = system: Brettanomyces naardenensis CBS 6115; experiment: Antimicrobial activity (MIC); conditions: CBS6115, potato dextrose broth pH 3.8, visual evaluation, read-out: Minimal Inhibitory Concentration (MIC)
[4] = system: Cutibacterium acnes DSM 1897; experiment: Antimicrobial activity (MIC); conditions: DSM1897, potato dextrose broth pH 3.8, visual evaluation, read-out: Minimal Inhibitory Concentration (MIC)
[5] = system: Corynebacterium xerosis DSM 20743; experiment: Antimicrobial activity (MIC); conditions: DSM20743, potato dextrose broth pH 3.8, visual evaluation, read-out: Minimal Inhibitory Concentration (MIC)
[6] = system: Enterococcus faecalis ATCC 7080; experiment: Antimicrobial activity (MIC); conditions: ATCC7080, potato dextrose broth pH 3.8, visual evaluation, read-out: Minimal Inhibitory Concentration (MIC)
[7] = system: Phanerochaete chrysosporium DSM 1556; experiment: Antimicrobial activity (MIC); conditions: Phanerodontia chrysosporium, DSM1556, potato dextrose broth pH 3.8, visual evaluation, read-out: Minimal Inhibitory Concentration (MIC)
[8] = system: Bacillus licheniformis DSM 13; experiment: Antimicrobial activity (MIC); conditions: DSM13, potato dextrose broth pH 3.8, visual evaluation, read-out: Minimal Inhibitory Concentration (MIC)
[9] = system: Staphylococcus aureus DSM 2569; experiment: Antimicrobial activity (MIC); conditions: DSM2569, potato dextrose broth pH 3.8, visual evaluation, read-out: Minimal Inhibitory Concentration (MIC)
[10] = system: Campylobacter jejuni DSM 4688; experiment: Antimicrobial activity (MIC); conditions: DSM4688, potato dextrose broth pH 3.8, visual evaluation, read-out: Minimal Inhibitory Concentration (MIC)
[11] = system: Yarrowia lipolytica DSM 70561; experiment: Antimicrobial activity (MIC); conditions: DSM70561, potato dextrose broth pH 3.8, visual evaluation, read-out: Minimal Inhibitory Concentration (MIC)
[12] = system: Salmonella enterica ssp. enterica Ser. typhimurium DSM 17058; experiment: Antimicrobial activity (MIC); conditions: potato dextrose broth pH 3.8, visual evaluation, read-out: Minimal Inhibitory Concentration (MIC)
[13] = system: Streptococcus mutans DSM 20523; experiment: Antimicrobial activity (MIC); conditions: DSM20523, potato dextrose broth pH 3.8, visual evaluation, read-out: Minimal Inhibitory Concentration (MIC)
[14] = system: Fusobacterium nucleatum subsp. vincentii DSM 19507; experiment: Antimicrobial activity (MIC); conditions: DSM19507, potato dextrose broth pH 3.8, visual evaluation, read-out: Minimal Inhibitory Concentration (MIC)
[15] = system: Saccharomyces cerevisiae DSM 2548; experiment: Antimicrobial activity (MIC); conditions: DSM2548, potato dextrose broth pH 3.8, visual evaluation, read-out: Minimal Inhibitory Concentration (MIC)
[16] = system: Zygosaccharomyces rouxii DSM 7525; experiment: Antimicrobial activity (MIC); conditions: DSM7525, potato dextrose broth pH 3.8, visual evaluation, read-out: Minimal Inhibitory Concentration (MIC)
[17] = system: Gluconacetobacter liquefaciens DSM 5603; experiment: Antimicrobial activity (MIC); conditions: DSM5603, potato dextrose broth pH 3.8, visual evaluation, read-out: Minimal Inhibitory Concentration (MIC)
[18] = system: Botrytis cinerea DSM 5145; experiment: Antimicrobial activity (MIC); conditions: DSM5145, potato dextrose broth pH 3.8, visual evaluation, read-out: Minimal Inhibitory Concentration (MIC)
[19] = system: Pseudomonas fluorescens DSM50337; experiment: Antimicrobial activity (MIC); conditions: potato dextrose broth pH 3.8, visual evaluation, read-out: Minimal Inhibitory Concentration (MIC)
[20] = system: Clostridium perfringens DSM 756; experiment: microbe, parasite or virus in culture; conditions: DSM756, pH 3.8, read-out: Minimal Inhibitory Concentration (MIC)
[21] = system: Pseudomonas aeruginosa DSM 1117; experiment: Antimicrobial activity (MIC); conditions: DSM1117, potato dextrose broth pH 3.8, visual evaluation, read-out: Minimal Inhibitory Concentration (MIC)
[22] = system: Penicillium expansum DSM 62841; experiment: Antimicrobial activity (MIC); conditions: DSM62841, potato dextrose broth pH 3.8, visual evaluation, read-out: Minimal Inhibitory Concentration (MIC)
Bacillus cereus DSM4490 = experiment: Antimicrobial activity (MIC); conditions: potato dextrose broth pH 3.8, visual evaluation, read-out: Minimal Inhibitory Concentration (MIC)
[23] = system: Actinomyces viscosus DSM43798; experiment: Antimicrobial activity (MIC); conditions: potato dextrose broth pH 3.8, visual evaluation, read-out: Minimal Inhibitory Concentration (MIC)
[24] = system: Cladosporium cladosporioides DSM19653; experiment: Antimicrobial activity (MIC); conditions: potato dextrose broth pH 3.8, visual evaluation, read-out: Minimal Inhibitory Concentration (MIC)
[25] = system: Alicyclobacillus acidoterrestris DSM 2498; experiment: Antimicrobial activity (MIC); conditions: DSM2498, potato dextrose broth pH 3.8, visual evaluation, read-out: Minimal Inhibitory Concentration (MIC)
[26] = system: Leuconostoc lactis DSM 20202; experiment: Antimicrobial activity (MIC); conditions: DSM20202, potato dextrose broth pH 3.8, visual evaluation, read-out: Minimal Inhibitory Concentration (MIC)
[27] = system: Candida parapsilosis ATCC 20384; experiment: Antimicrobial activity (MIC); conditions: Lodderomyces parapsilosis, ATCC20384, potato dextrose broth pH 3.8, visual evaluation, read-out: Minimal Inhibitory Concentration (MIC)
[28] = system: Alternaria alternata DSM 12633; experiment: Antimicrobial activity (MIC); conditions: DSM12633, potato dextrose broth pH 3.8, visual evaluation, read-out: Minimal Inhibitory Concentration (MIC)
[29] = system: Zygosaccharomyces bailii DSM 70834; experiment: Antimicrobial activity (MIC); conditions: DSM70834, potato dextrose broth pH 3.8, visual evaluation, read-out: Minimal Inhibitory Concentration (MIC)

SMILES | MIC [1] | MIC [2] | MIC [3] | MIC [4] | MIC [5] | MIC [6] | MIC [7] | MIC [8] | MIC [9] | MIC [10] | MIC [11] | MIC [12] | MIC [13] | MIC [14] | MIC [15] | MIC [16] | MIC [17] | MIC [18] | MIC [19] | MIC [20] | also measured
C[C@H]1CC[C@@]2(OC1)O[C@H]1CC3C4CC[C@H]5C[C@@H](O[C@@H]6O[C@H](CO)[C@H](O[C@@H]7O[C@H](CO)[C@@H](O)[C@H](O[C@@H]8OC[C@@H](O)[C@H](O)[C@H]8O)[C@H]7O[C@@H]7O[C@H](CO)[C@@H](O)[C@H](O)[C@H]7O)[C@H](O)[C@H]6O)[C@H](O)C[C@]5(C)C4=CC(=O)[C@]3(C)[C@H]1[C@@H]2C (stereo partly drawn) [A] | > 80 µg/mL | > 80 µg/mL | > 80 µg/mL | > 80 µg/mL | > 80 µg/mL | > 80 µg/mL | > 80 µg/mL | > 80 µg/mL | > 80 µg/mL | > 80 µg/mL | > 80 µg/mL | > 80 µg/mL | > 80 µg/mL | 80 µg/mL (≈ 75.2 µM) | > 80 µg/mL | 500 µg/mL (≈ 470 µM) | 140 µg/mL (≈ 132 µM) | > 80 µg/mL | > 80 µg/mL | > 80 µg/mL | MIC [21]: > 80 µg/mL; MIC [22]: > 500 µg/mL; MIC (Bacillus cereus DSM4490): > 80 µg/mL; MIC [23]: > 80 µg/mL; MIC [24]: > 80 µg/mL; MIC [25]: 40 µg/mL (≈ 37.6 µM); MIC [26]: 80 µg/mL (≈ 75.2 µM); MIC [27]: > 80 µg/mL; MIC [28]: > 80 µg/mL; MIC [29]: > 80 µg/mL
C[C@H]1CC[C@@]2(OC1)O[C@H]1CC3C4CC[C@H]5C[C@@H](O[C@@H]6O[C@H](CO)[C@H](O[C@@H]7O[C@H](CO)[C@@H](O)[C@H](O)[C@H]7O[C@@H]7O[C@H](CO)[C@@H](O)[C@H](O)[C@H]7O)[C@H](O)[C@H]6O)[C@H](O)C[C@]5(C)C4=CC(=O)[C@]3(C)[C@H]1[C@@H]2C (stereo partly drawn) [D] | > 80 µg/mL | > 80 µg/mL | > 80 µg/mL | > 80 µg/mL | > 80 µg/mL | > 80 µg/mL | > 80 µg/mL | > 80 µg/mL | > 80 µg/mL | > 80 µg/mL | > 80 µg/mL | > 80 µg/mL | > 80 µg/mL | 80 µg/mL (≈ 85.9 µM) | > 80 µg/mL | 500 µg/mL (≈ 537 µM) | 140 µg/mL (≈ 150 µM) | > 80 µg/mL | > 80 µg/mL | > 80 µg/mL | MIC [21]: > 80 µg/mL; MIC [22]: > 500 µg/mL; MIC (Bacillus cereus DSM4490): > 80 µg/mL; MIC [23]: > 80 µg/mL; MIC [24]: > 80 µg/mL; MIC [25]: 40 µg/mL (≈ 43 µM); MIC [26]: 80 µg/mL (≈ 85.9 µM); MIC [27]: > 80 µg/mL; MIC [28]: > 80 µg/mL; MIC [29]: > 80 µg/mL
C[C@@H]1CC[C@@]2(OC1)O[C@H]1CC3C4CC=C5CC(O[C@@H]6O[C@H](CO)[C@@H](O[C@@H]7O[C@@H](C)[C@H](O[C@@H]8O[C@@H](C)[C@H](O)[C@@H](O)[C@H]8O)[C@@H](O)[C@H]7O)[C@H](O)[C@H]6O[C@@H]6O[C@@H](C)[C@H](O)[C@@H](O)[C@H]6O)CC[C@]5(C)C4CC[C@]3(C)[C@@]1(O)[C@@H]2C (stereo partly drawn) [B] | > 80 µg/mL | > 80 µg/mL | > 80 µg/mL | > 80 µg/mL | > 80 µg/mL | > 80 µg/mL | > 80 µg/mL | > 80 µg/mL | > 80 µg/mL | > 80 µg/mL | > 80 µg/mL | > 80 µg/mL | > 80 µg/mL | > 80 µg/mL | > 80 µg/mL | 500 µg/mL (≈ 485 µM) | 40 µg/mL (≈ 38.8 µM) | > 80 µg/mL | > 80 µg/mL | > 80 µg/mL | MIC [21]: > 80 µg/mL; MIC [22]: > 500 µg/mL; MIC (Bacillus cereus DSM4490): > 80 µg/mL; MIC [23]: > 80 µg/mL; MIC [24]: > 80 µg/mL; MIC [25]: 140 µg/mL (≈ 136 µM); MIC [26]: > 80 µg/mL; MIC [27]: > 80 µg/mL; MIC [28]: > 80 µg/mL; MIC [29]: > 80 µg/mL
CC1CC[C@@]2(OC1)O[C@H]1CC3C4CC=C5C[C@@H](O[C@@H]6O[C@H](CO)[C@@H](O[C@@H]7O[C@@H](C)[C@H](O)[C@@H](O)[C@H]7O)[C@H](O)[C@H]6O[C@@H]6O[C@@H](C)[C@H](O)[C@@H](O)[C@H]6O)CC[C@]5(C)C4CC[C@]3(C)[C@@]1(O)[C@@H]2C (stereo partly drawn) [C] | > 80 µg/mL | > 80 µg/mL | > 80 µg/mL | > 80 µg/mL | > 80 µg/mL | > 80 µg/mL | > 80 µg/mL | > 80 µg/mL | > 80 µg/mL | > 80 µg/mL | > 80 µg/mL | > 80 µg/mL | > 80 µg/mL | > 80 µg/mL | > 80 µg/mL | 500 µg/mL (≈ 565 µM) | 40 µg/mL (≈ 45.2 µM) | > 80 µg/mL | > 80 µg/mL | > 80 µg/mL | MIC [21]: > 80 µg/mL; MIC [22]: > 500 µg/mL; MIC (Bacillus cereus DSM4490): > 80 µg/mL; MIC [23]: > 80 µg/mL; MIC [24]: > 80 µg/mL; MIC [25]: 80 µg/mL (≈ 90.4 µM); MIC [26]: > 80 µg/mL; MIC [27]: > 80 µg/mL; MIC [28]: > 80 µg/mL; MIC [29]: > 80 µg/mL
